This note sets out measurements from ChEMBL document CHEMBL1201862, “PubChem BioAssay data set” (2004).

Among the test systems are DMS-114; EKVX; HCT-116; HOP-92; HT-29; KM12; MCF7; NCI-H23; NCI-H460; OVCAR-3; RPMI-8226; SF-268; SF-539; SK-MEL-2; SNB-75; SNB-78; DU-145; M14; SR; T47D.
Common to all, as to experiment: NCI tumour cell line growth inhibition, 48 h

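96-well plates; 48 h exposure; 5 concentrations. Endpoints by linear interpolation between flanking doses. Not reached: highest tested concentration assigned. The concentration for 50% growth inhibition is given as GI50.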 Activity calls are given as the source filed them. No stated cut-off is given here; in the data, active = GI50 up to about 1.1 µM and inactive = higher.

As for `CNC(=O)SCC(N)C(=O)O` (stereo not drawn), the GI50 in the assay with DMS-114 is 35.3 µM (inactive); with EKVX, > 100 µM (inactive); in the assay with HCT-116 it was > 79.4 µM (inactive); with HOP-92, 51.9 µM (inactive); with HT-29, > 71.3 µM (inactive); in the assay on KM12 it was > 100 µM (inactive). In addition, the GI50 is > 100 µM (inactive) with MCF7; > 84.1 µM (inactive) in the assay on NCI-H23; > 68.7 µM (inactive) in the assay with NCI-H460; > 100 µM (inactive) in the assay with OVCAR-3; 25.4 µM (inactive) in the assay with RPMI-8226; > 100 µM (inactive) with SF-268. Further, the GI50 was > 100 µM (inactive) in the assay on SF-539, > 82 µM (inactive) in the assay with SK-MEL-2, > 100 µM (inactive) in the assay with SNB-75 and > 100 µM (inactive) in the assay on SNB-78.
As to `NC(CCP(=O)(O)CCC1C=CC=CC1)C(=O)O` (stereo not drawn), the GI50 in the assay on DU-145, with EKVX, in the assay on HCT-116, in the assay with HOP-92, in the assay with HT-29 and in the assay on KM12 was > 100 µM (inactive) each time. The GI50 in the assay on M14, with NCI-H23, in the assay on NCI-H460, in the assay with OVCAR-3, in the assay with RPMI-8226 and in the assay on SF-268 was > 100 µM (inactive) each time. For the same compound, the GI50 was 56.8 µM (inactive) in the assay on SF-539; > 100 µM (inactive) in the assay on SK-MEL-2; > 100 µM (inactive) in the assay with SNB-75; > 100 µM (inactive) in the assay on SR; > 100 µM (inactive) with T47D.
For the compound `Nc1cccc2c1C1=NNC(=O)CC1C2` (stereo not drawn), the GI50 in the assay with DMS-114 is > 100 µM (inactive); in the assay with EKVX, > 76.6 µM (inactive); with HCT-116, > 100 µM (inactive); in the assay on HOP-92 it was 2.51 µM (inactive); in the assay on KM12 it was > 100 µM (inactive); with MCF7, > 100 µM (inactive). The GI50 with NCI-H460, in the assay on OVCAR-3, in the assay with RPMI-8226, in the assay with SF-268, with SF-539 and with SK-MEL-2 was > 100 µM (inactive) throughout. Besides, the GI50 with SNB-75 and in the assay with SNB-78 was > 100 µM (inactive) throughout.
In the case of `COc1cc(-c2cc(=O)c3c(O)c(CC=C(C)C)c(O)cc3o2)ccc1O`, the GI50 is 32.9 µM (inactive) with DU-145; 7.29 µM (inactive) in the assay with EKVX; 16.2 µM (inactive) in the assay on HCT-116; > 50 µM (inactive) in the assay on HOP-92; > 50 µM (inactive) in the assay with HT-29; 12.4 µM (inactive) in the assay on M14. Moreover, the GI50 with MCF7 is 25.1 µM (inactive); with NCI-H23, > 50 µM (inactive); in the assay on NCI-H460, 19.5 µM (inactive); with OVCAR-3 it was 14.9 µM (inactive); in the assay on RPMI-8226, 11.7 µM (inactive); with SF-268, 24.6 µM (inactive). For the same compound, the GI50 in the assay on SF-539 was 16.9 µM (inactive); with SK-MEL-2 it was 23.6 µM (inactive); in the assay with SR it was 14.7 µM (inactive); in the assay with T47D, 9.77 µM (inactive).
`O=C(Nc1ccccc1F)c1c(O)nc2sccn2c1=O`: the GI50 in the assay with DU-145, in the assay with EKVX, in the assay on HCT-116, in the assay with HT-29, in the assay on KM12 and with M14 was > 10 µM (inactive) each time. The GI50 in the assay with MCF7, in the assay on NCI-H23, in the assay on NCI-H460, in the assay on OVCAR-3, with RPMI-8226 and in the assay on SF-268 was > 10 µM (inactive) each time. Further, the GI50 with SF-539, in the assay on SK-MEL-2, in the assay on SNB-75, in the assay with SR and in the assay on T47D was > 10 µM (inactive) in each case.
`O=C(c1ccccc1)c1ccc2n[se]nc2c1`: the GI50 is 12.4 µM (inactive) in the assay on DMS-114; 56.5 µM (inactive) in the assay with EKVX; 6.34 µM (inactive) in the assay with HT-29; 4.54 µM (inactive) in the assay on KM12; 19.1 µM (inactive) in the assay on M14; 62.5 µM (inactive) in the assay on NCI-H23. The GI50 was 28.4 µM (inactive) with RPMI-8226; > 100 µM (inactive) with SF-268; 17.9 µM (inactive) with SF-539; > 100 µM (inactive) with SK-MEL-2; 18.4 µM (inactive) with SNB-75; > 100 µM (inactive) in the assay with SNB-78.
As to `C[C@]12CC[C@@H]3c4ccc(OCCN5CCCC5)cc4CC[C@H]3[C@@H]1CCC2=O`, the GI50 in the assay with DU-145 is 47.9 µM (inactive); in the assay on EKVX, 18.2 µM (inactive); with HOP-92, 29 µM (inactive); in the assay on HT-29, 25.9 µM (inactive); in the assay with M14, 13.7 µM (inactive); in the assay with MCF7 it was 22.5 µM (inactive). Further, the GI50 in the assay with NCI-H23 is 36.4 µM (inactive); with NCI-H460, 19.9 µM (inactive); in the assay on OVCAR-3, 23.9 µM (inactive); in the assay with RPMI-8226, 23.7 µM (inactive); with SK-MEL-2 it was 17.6 µM (inactive); in the assay with SR, 29.9 µM (inactive). Besides, the GI50 in the assay with T47D is 36.1 µM (inactive).
With `COc1ccc(C2SCc3nc4ccccc4n32)cc1` (stereo not drawn), the GI50 with DMS-114 was 2.26 µM (inactive); in the assay with EKVX, 19.5 µM (inactive); with HOP-92, 1.85 µM (inactive); in the assay with HT-29 it was 2.4 µM (inactive); in the assay on M14, 4.95 µM (inactive); with NCI-H23, 4.04 µM (inactive). Also, the GI50 with NCI-H460 was 3.86 µM (inactive); in the assay on OVCAR-3 it was 6.28 µM (inactive); in the assay on RPMI-8226, 2.96 µM (inactive); with SF-268, 5.43 µM (inactive); in the assay on SF-539, 5.66 µM (inactive); with SK-MEL-2, 3.9 µM (inactive). In addition, the GI50 was 1.82 µM (inactive) with SNB-75 and 8.95 µM (inactive) with SNB-78.
For the compound `Cn1c(=O)[nH]c2nncnc2c1=O`, the GI50 in the assay with DMS-114 was 126 µM (inactive); in the assay on EKVX, 40.5 µM (inactive); in the assay on HCT-116, 29.2 µM (inactive); in the assay with HOP-92, 21.3 µM (inactive); with HT-29 it was 114 µM (inactive); in the assay on KM12, 23.8 µM (inactive). Besides, the GI50 is 212 µM (inactive) with MCF7; 179 µM (inactive) in the assay with NCI-H23; 29.3 µM (inactive) in the assay with NCI-H460; 78.9 µM (inactive) in the assay on OVCAR-3; 77.4 µM (inactive) in the assay on RPMI-8226; 133 µM (inactive) in the assay on SF-268. In addition, the GI50 in the assay with SF-539 was 64.9 µM (inactive); with SK-MEL-2 it was 120 µM (inactive); in the assay with SNB-75, 21 µM (inactive); in the assay on SNB-78 it was 151 µM (inactive).
As to `CCOC(=O)CCC(NC(=O)OCc1ccccc1)C(=O)NC(CCC(=O)OCC)C(=O)NNC(=O)OC(C)(C)C` (stereo not drawn), the GI50 in the assay with DU-145, in the assay on HCT-116, with HOP-92, in the assay on KM12, with M14 and in the assay with MCF7 was > 100 µM (inactive) each time. Further, the GI50 in the assay with NCI-H23, with NCI-H460, in the assay with OVCAR-3, in the assay with RPMI-8226, in the assay with SK-MEL-2 and in the assay on SNB-75 was > 100 µM (inactive) throughout. Further, the GI50 in the assay on SR and in the assay on T47D was > 100 µM (inactive) throughout.
As for `CCOC(=O)CSc1nc(N)c2c(-c3ccc(OC)c(OC)c3)c3c(nc2n1)CCCC3`, the GI50 with DU-145 was > 100 µM (inactive); with EKVX, 95.3 µM (inactive); in the assay on HCT-116 it was > 100 µM (inactive); with HT-29 it was > 100 µM (inactive); in the assay on KM12 it was > 100 µM (inactive); with M14, > 100 µM (inactive). For the same compound, the GI50 in the assay with MCF7 was > 100 µM (inactive); in the assay on NCI-H23, > 100 µM (inactive); in the assay with NCI-H460 it was > 100 µM (inactive); in the assay with OVCAR-3 it was > 100 µM (inactive); in the assay with RPMI-8226, > 100 µM (inactive); in the assay on SF-268, 43.4 µM (inactive). Further, the figures for the GI50 in the assay with SNB-75, with SR and with T47D were 14.4 µM (inactive), > 100 µM (inactive) and > 100 µM (inactive), respectively.
Take `O=C1c2cccc3cc4ccccc4c(c23)C(=O)N1CCNCCNCCNCCN1C(=O)c2cccc3cc4ccccc4c(c23)C1=O`: the GI50 in the assay on DMS-114 was 0.0114 µM (active); in the assay with EKVX it was 0.129 µM (active); in the assay with HCT-116, < 0.01 µM (active); in the assay on HOP-92, 0.0111 µM (active); in the assay with HT-29, < 0.01 µM (active); with MCF7, < 0.01 µM (active). Moreover, the GI50 in the assay with NCI-H23 is < 0.01 µM (active); in the assay on NCI-H460 it was < 0.01 µM (active); in the assay with OVCAR-3, < 0.033 µM (active); with SF-268, < 0.01 µM (active); with SF-539 it was 0.0243 µM (active); in the assay with SK-MEL-2, 0.119 µM (active). The GI50 is < 0.0141 µM (active) with SNB-75 and < 0.01 µM (active) in the assay on SNB-78.
